# Test results reported in patent US8334302B2, “Synthesis and anti-proliferative effect of substituted imidazo[4,5-b]pyridine compounds” (Spelman College, priority 2008, dated 2012).
# Experiments:
# [1] = test system: PC-3 human prostate cancer cells; experiment: Inhibition of cell proliferation in PC-3 cells, DNA assay (Hoechst 33258); type: cell-based; conditions: for IC50: Homo sapiens, inhibition of PC-3 cells, read-out: PC3 IC50
# Protocol: Cell Culture and Drug Treatment. PC-3 human prostate cancer cells were seeded in duplicate 96 well tissue culture plates at 500 cells/well in 80-μL Dulbecco's […] (DMEM) supplemented with 5% fetal bovine serum (FBS) and nonessential amino acids and 1% equimolar mixture of streptomycin-penicllin. The flasks were incubated in a humidified 95% air/5% CO2 atmosphere. The cells were grown for at least 24 hours to ensure that they were in the early log phase of growth. Cells were then treated with 20-μL drug solutions (stock 10 mM drug solution in DMSO was diluted in DMEM containing 5% FBS such that final DMSO concentration is less than 1%) of appropriate final concentration by serial dilution. Untreated control cells received 20-μL DMEM containing 5% FBS. Six wells of each plate received the same drug concentration. Thus, each data point and error bars are an average and standard deviation of readings from 12 wells treated with identical drug concentration.
# DNA Assay. After appropriate time of incubation, DNA assay was performed. For DNA assay, each culture plate was washed with 25% PBS and incubated in deionized double distilled water for at least one hour at room temperature. Plates were frozen at −70° C. and thawed/equilibrated to room temperature. Hoechst 33258 DNA binding dye was then added to each well in 200-μL of high salt TNE buffer (10 mM Tris, 1 mM EDTA, 2 M NaCl [pH 7.4]) at a final concentration of 6.7-μg/mL. After further incubation at room temperature for 2 hours under protection from light, culture plates were scanned on the CytoFluor 2350™ scanner using the 360/460 nm filter excitation and emission set. Readings from all plates were normalized to the fluorescence of control untreated cells and all data were expressed as the percent control.
# IKKβ(h) = target: T1, IKKβ(h) (Homo sapiens, UniProt O14920); experiment: Kinase assay, Millipore KinaseProfiler, radiometric; type: biochemical; conditions: IKKβ(h) activity in presence of compound
# T1 construct: purchased Millipore (KinaseProfiler Service)
# T1 sequence (O14920 1-756): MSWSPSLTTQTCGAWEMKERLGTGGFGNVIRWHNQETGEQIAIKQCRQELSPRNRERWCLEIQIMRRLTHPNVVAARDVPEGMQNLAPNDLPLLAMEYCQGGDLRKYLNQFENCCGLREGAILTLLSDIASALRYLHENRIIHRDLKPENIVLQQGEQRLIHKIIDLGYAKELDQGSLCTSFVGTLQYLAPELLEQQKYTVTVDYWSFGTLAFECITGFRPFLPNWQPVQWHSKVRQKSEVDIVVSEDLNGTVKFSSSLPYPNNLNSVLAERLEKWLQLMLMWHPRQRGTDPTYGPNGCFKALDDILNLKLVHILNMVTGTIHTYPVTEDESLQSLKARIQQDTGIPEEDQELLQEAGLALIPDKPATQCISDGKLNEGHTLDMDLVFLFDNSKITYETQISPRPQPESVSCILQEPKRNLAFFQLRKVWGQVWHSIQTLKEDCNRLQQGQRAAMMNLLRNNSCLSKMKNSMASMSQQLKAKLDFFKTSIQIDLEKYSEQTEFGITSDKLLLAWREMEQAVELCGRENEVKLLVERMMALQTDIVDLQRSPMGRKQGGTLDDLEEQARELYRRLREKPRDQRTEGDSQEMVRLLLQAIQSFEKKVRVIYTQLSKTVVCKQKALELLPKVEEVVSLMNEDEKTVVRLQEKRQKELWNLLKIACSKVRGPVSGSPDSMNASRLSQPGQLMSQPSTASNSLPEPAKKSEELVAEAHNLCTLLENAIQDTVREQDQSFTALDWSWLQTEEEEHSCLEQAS
# Protocol: (§1) Kinase Assays. Kinase assays were conducted by Millipore's KinaseProfiler Service to determine the amount of ATP phosphorylation that occurs in the presence of a benzimidazole molecule. Kinases assayed included IKKβ, CK2, CDK1/cyclinB, GSK3β, and p70S6K. The desired kinase was treated with the benzimidazole compound The reaction were initiated by the addition of the MgATP mix. After incubation for 40 minutes at room temperature, the reaction is stopped by the addition of 3% phosphoric acid solution. 10 μL of the reaction was then spotted onto a P30 filtermat and washed three times for 5 minutes in 75 mM phosphoric acid and once in methanol prior to drying and scintillation counting. The kinase activity was measured radiometrically to determine the amount of ATP phosphorylation produced. All assays were done in triplicate.
# GSK3β(h) = target: T2, GSK3β(h) (Homo sapiens, UniProt P49841); experiment: as above; type: biochemical; conditions: GSK3β(h) activity in presence of compound
# T2 construct: purchased Millipore (KinaseProfiler Service)
# Protocol: as §1
# CDK1/cyclinB(h) = target: T3, CDK1/cyclinB(h) (Homo sapiens, UniProt P06493); experiment: as above; type: biochemical; conditions: CDK1/cyclinB(h) activity in presence of compound
# T3 construct: purchased Millipore (KinaseProfiler Service)
# Protocol: as §1
# CK2(h) = target: T4, CK2(h) (Homo sapiens, UniProt P68400); experiment: as above; type: biochemical; conditions: CK2(h) activity in presence of compound
# T4 construct: purchased Millipore (KinaseProfiler Service)
# Protocol: as §1
# p70S6K(h) = target: T5, p70S6K(h) (Homo sapiens, UniProt P23443); experiment: as above; type: biochemical; conditions: p70S6K(h) activity in presence of compound
# T5 construct: purchased Millipore (KinaseProfiler Service)
# Protocol: as §1
# PDK1(h) = target: T6, PDK1(h) (Homo sapiens, UniProt O15530); experiment: as above; type: biochemical; conditions: PDK1(h) activity in presence of compound
# T6 construct: purchased Millipore (KinaseProfiler Service)
# T6 sequence (O15530 1-556): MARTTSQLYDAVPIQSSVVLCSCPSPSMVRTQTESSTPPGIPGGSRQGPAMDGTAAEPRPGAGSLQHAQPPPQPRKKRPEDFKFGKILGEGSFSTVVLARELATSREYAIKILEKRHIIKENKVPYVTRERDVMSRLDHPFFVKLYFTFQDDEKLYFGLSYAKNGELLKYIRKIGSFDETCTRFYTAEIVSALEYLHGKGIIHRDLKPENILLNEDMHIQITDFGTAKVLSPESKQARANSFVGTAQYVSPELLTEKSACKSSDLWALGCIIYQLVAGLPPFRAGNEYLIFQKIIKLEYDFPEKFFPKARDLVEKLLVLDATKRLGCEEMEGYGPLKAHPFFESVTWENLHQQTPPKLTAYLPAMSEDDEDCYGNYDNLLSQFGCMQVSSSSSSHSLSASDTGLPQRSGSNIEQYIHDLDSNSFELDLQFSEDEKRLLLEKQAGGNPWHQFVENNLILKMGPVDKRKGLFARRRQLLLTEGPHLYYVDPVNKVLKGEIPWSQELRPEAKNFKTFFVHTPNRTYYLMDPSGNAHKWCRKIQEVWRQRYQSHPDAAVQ
# PC-3 cells = conditions: micromolar concentrations; cited from earlier work
# T3 sequence (P06493 whole entry): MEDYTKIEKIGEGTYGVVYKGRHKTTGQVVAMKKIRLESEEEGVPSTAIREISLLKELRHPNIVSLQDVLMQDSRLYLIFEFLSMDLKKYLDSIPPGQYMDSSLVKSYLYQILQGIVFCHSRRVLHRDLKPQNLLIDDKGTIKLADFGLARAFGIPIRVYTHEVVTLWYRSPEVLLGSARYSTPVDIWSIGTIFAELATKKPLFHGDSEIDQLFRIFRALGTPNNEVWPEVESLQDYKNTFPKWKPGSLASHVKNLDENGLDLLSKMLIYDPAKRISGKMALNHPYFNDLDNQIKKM
# T3 sequence (P14635 whole entry partner): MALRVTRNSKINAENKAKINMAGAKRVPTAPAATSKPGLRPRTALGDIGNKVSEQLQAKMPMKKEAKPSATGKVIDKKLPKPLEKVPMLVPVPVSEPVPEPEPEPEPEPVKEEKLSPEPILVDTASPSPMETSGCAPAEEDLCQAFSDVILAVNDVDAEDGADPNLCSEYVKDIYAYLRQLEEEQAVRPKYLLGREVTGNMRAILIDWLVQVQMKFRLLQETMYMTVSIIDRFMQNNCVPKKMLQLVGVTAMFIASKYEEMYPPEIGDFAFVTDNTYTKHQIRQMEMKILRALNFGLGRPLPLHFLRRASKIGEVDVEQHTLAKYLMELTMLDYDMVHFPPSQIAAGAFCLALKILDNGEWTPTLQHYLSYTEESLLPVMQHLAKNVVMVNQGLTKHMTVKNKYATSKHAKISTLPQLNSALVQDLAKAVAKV
# T5 sequence (P23443 whole entry): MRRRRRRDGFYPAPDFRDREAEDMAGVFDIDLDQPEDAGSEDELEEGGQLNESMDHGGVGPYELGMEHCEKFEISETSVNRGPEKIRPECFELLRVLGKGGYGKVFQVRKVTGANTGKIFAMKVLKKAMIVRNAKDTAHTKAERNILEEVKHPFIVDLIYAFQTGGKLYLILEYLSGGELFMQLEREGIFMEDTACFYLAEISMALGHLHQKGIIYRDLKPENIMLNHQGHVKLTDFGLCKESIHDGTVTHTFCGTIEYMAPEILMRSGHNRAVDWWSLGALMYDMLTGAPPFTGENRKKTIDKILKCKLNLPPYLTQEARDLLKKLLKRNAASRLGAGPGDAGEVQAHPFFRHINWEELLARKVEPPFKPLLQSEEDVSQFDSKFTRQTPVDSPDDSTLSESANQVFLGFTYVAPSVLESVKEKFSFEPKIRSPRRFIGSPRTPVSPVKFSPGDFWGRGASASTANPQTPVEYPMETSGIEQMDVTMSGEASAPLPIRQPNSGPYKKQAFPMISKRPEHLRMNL
# T2 sequence (P49841 whole entry): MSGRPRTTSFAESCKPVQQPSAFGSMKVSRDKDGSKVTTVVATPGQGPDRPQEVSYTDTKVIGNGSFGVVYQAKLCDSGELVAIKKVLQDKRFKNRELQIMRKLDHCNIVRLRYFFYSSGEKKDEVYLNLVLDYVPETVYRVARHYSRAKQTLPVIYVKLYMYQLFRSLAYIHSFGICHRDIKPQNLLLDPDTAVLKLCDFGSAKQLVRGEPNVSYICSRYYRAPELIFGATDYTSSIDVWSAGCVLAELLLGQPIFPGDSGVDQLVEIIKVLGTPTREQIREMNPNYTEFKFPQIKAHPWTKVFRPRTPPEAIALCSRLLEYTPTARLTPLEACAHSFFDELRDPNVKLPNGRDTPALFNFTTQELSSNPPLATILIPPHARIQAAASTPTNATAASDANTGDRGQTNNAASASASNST
# T4 sequence (P68400 whole entry): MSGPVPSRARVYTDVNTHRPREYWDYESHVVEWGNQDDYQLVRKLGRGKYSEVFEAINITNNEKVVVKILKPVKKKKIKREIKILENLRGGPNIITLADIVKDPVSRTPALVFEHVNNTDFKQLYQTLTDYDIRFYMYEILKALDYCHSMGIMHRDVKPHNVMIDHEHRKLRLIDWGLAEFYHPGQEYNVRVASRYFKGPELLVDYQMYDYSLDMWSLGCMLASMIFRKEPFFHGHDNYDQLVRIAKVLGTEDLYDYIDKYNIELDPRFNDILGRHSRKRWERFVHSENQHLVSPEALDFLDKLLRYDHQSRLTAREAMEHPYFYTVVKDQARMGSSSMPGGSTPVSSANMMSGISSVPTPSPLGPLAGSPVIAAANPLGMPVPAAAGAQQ
# T4 sequence (P67870 whole entry partner): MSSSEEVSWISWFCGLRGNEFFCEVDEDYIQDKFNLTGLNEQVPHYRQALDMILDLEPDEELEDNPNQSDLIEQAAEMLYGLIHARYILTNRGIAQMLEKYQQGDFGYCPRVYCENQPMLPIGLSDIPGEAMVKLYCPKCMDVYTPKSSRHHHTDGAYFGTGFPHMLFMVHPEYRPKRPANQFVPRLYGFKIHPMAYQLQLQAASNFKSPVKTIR
smiles,measurement,setting,value
NS(=O)(=O)c1ccc(-c2nc3ccccc3n2-c2ccc3ccccc3c2)cc1 [Compound 208],IC50,[1],10 µM
FC(F)(F)c1cc(-c2ccc3c(ccc4ccccc43)c2)n(-c2ccc(-c3nnn[nH]3)cc2)n1 [Compound 203],IC50,[1],32 µM
"Cc1ccc(-c2cc(C(F)(F)F)nn2-c2ccc(S(N)(=O)=O)cc2)cc1 [Compound 201, Celecoxib]",IC50,[1],30 µM
CC(C)(C)c1ccc(-c2cc(C(F)(F)F)nn2-c2ccc(S(N)(=O)=O)cc2)cc1 [Compound 204],IC50,[1],18 µM
"Cc1ccc(-n2c(-c3ccc(S(N)(=O)=O)cc3)nc3ccccc32)cc1 [Compound 206, 4-[1-(4-methylphenyl)-1H-benzo[d]imidazol-2-yl]benzenesulfonamide]",% Activity,IKKβ(h),86%
same,% Activity,GSK3β(h),72%
same,% Activity,CDK1/cyclinB(h),7%
same,% Activity,CK2(h),92%
same,% Activity,p70S6K(h),33%
same,IC50,[1],24 µM
same,antiproliferative effect in PC-3 cells (in words),"[1]; PC-3 human prostate cancer cells, DNA assay, FIG. 1",slightly more effective
NS(=O)(=O)c1ccc(-n2nc(C(F)(F)F)cc2-c2ccc3ccccc3c2)cc1 [Compound 205],IC50,[1],10 µM
NS(=O)(=O)c1ccc(-c2nc3ccccc3n2-c2ccc(Oc3ccccc3)cc2)cc1 [Compound 210],% Activity,IKKβ(h),72%
same,% Activity,GSK3β(h),7%
same,% Activity,CDK1/cyclinB(h),16%
same,% Activity,CK2(h),99%
same,% Activity,p70S6K(h),18%
"NS(=O)(=O)c1ccc(-c2nc3ccccc3n2-c2ccc(Cc3ccccc3)cc2)cc1 [Compound 209, 4-(1-(4-benzylphenyl)-1H-benzo[d]imidazol-2-yl)benzenesulfonamide]",% Activity,IKKβ(h),25%
same,% Activity,GSK3β(h),5%
same,% Activity,CDK1/cyclinB(h),36%
same,% Activity,CK2(h),22%
same,% Activity,p70S6K(h),12%
same,% Activity,PDK1(h),30%
"CC(C)(C)c1ccc(-n2c(-c3ccc(S(N)(=O)=O)cc3)nc3ccccc32)cc1 [Compound 207, 4-(1-(4-tert-butylphenyl)-1H-benzo[d]imidazol-2-yl)benzenesulfonamide]",IC50,[1],20 µM
"N=C(N)Nc1ccc(-n2nc(C(F)(F)F)cc2-c2ccc3c(ccc4ccccc43)c2)cc1 [Compound 202, OSU-03013]","concentration diminishing cell proliferation, relative to celecoxib",PC-3 cells,thirty-fold lower
same,IC50,[1],3 µM
NS(=O)(=O)c1ccc(-c2nc3ccccc3n2-c2ccc(-c3ccccc3)cc2)cc1 [Compound 211],% Activity,IKKβ(h),71%
same,% Activity,GSK3β(h),13%
same,% Activity,CDK1/cyclinB(h),11%
same,% Activity,CK2(h),99%
same,% Activity,p70S6K(h),17%
